# Where a name gives a salt, the structure may show the parent alone.
# System: not given
# Experiment: not given
# Conditions: not given
row,melting point,SMILES
1,136 °C,"O=C(O)c1cc2cc(Cl)ccc2nc1NC(Cc1ccc(Oc2ccc3ccccc3n2)cc1)C(=O)O (stereo not drawn) [Example 96, 2-{1-Carboxy-2-[4-(quinolin-2-yloxy)-phenyl]-ethylamino}-6-chloro-quinoline-3-carboxylic acid]"
2,> 160 °C (dec.),"O=C(O)c1cc2cc(Cl)ccc2nc1NC(Cc1ccc(O)c(F)c1)C(=O)O (stereo not drawn) [Example 52, 2-[1-Carboxy-2-(3-fluoro-4-hydroxy-phenyl)-ethylamino]-6-chloro-quinoline-3-carboxylic acid]"
3,165 to 170 °C (dec.),COc1cccc(CC(Nc2nc3ccc(Cl)cc3cc2C(=O)O)C(=O)O)c1 (stereo not drawn)
4,> 200 °C (dec.),"Cc1cc(C)n(CC(Nc2nc3ccc(Cl)cc3cc2C(=O)O)C(=O)O)n1 (stereo not drawn) [Example 57, 2-[1-Carboxy-2-(3,5-dimethyl-pyrazol-1-yl)-ethylamino]-6-chloro-quinoline-3-carboxylic acid]"
5,140 to 141.5 °C,"O=C(O)c1cc2ccccc2nc1N[C@H](Cc1ccccc1)C(=O)O [Example 44, 2-((R)-1-Carboxy-2-phenyl-ethylamino)-quinoline-3-carboxylic acid]"
6,> 166 °C (dec.),"O=C(O)c1cc2cc(Cl)ccc2nc1N[C@@H](Cc1ccc(Oc2ncccc2C(=O)O)cc1)C(=O)O (as salt: salt) [Example 100, 2-{(S)-1-Carboxy-2-[4-(3-carboxy-pyridin-2-yloxy)-phenyl]-ethylamino}-6-chloro-quinoline-3-carboxylic acid]"
7,> 250 °C,Nc1cc(C[C@H](Nc2nc3ccc(Cl)cc3cc2C(=O)O)C(=O)O)ccc1O
8,150 to 175 °C (dec.),O=C(O)c1cc2cc(Cl)ccc2nc1N[C@@H](Cc1ccc(O)c(Cl)c1)C(=O)O
9,> 185 °C (dec.),"O=C(O)c1cc2cc(Cl)ccc2nc1NC(Cc1cccc(CC(Nc2nc3ccc(Cl)cc3cc2C(=O)O)C(=O)O)c1)C(=O)O (stereo not drawn) [Example 82, 2-{2-[3-[2-(3-Carboxy-6-chloro-quinolin-2-yl)amino-2-carboxy-ethyl]-phenyl]-1-carboxy-ethylamino}-6-chloro-quinoline-3-carboxylic acid]"
10,> 180 °C (dec.),O=C(O)c1ccc(CC(Nc2nc3ccc(Cl)cc3cc2C(=O)O)C(=O)O)cc1 (stereo not drawn)
11,180 to 185 °C,"COc1ccc(Cl)c(CC(Nc2nc3ccc(Cl)cc3cc2C(=O)O)C(=O)O)c1 (stereo not drawn) [Example 68, 2-[1-Carboxy-2-(2-chloro-5-methoxy-phenyl)-ethylamino]-6-chloro-quinoline-3-carboxylic acid]"
12,> 250 °C (dec.),Nc1ccc(CC(Nc2nc3ccc(Cl)cc3cc2C(=O)O)C(=O)O)cc1 (stereo not drawn)
13,177 to 181 °C,O=C(O)c1cc2cc(Cl)ccc2nc1NC(Cc1cccc(F)c1)C(=O)O (stereo not drawn)
14,186 to 197 °C (dec.),"O=C(O)c1cc2cc(Cl)ccc2nc1NC(Cc1cccc(Oc2nc3ccc(Cl)cc3cc2C(=O)O)c1)C(=O)O (stereo not drawn) [Example 81, 2-{2-[3-(3-carboxy-6-chloro-quinolin-2-yloxy)-phenyl]-1-carboxy-ethylamino}-6-chloro-quinoline-3-carboxylic acid]"
15,> 170 °C (dec.),O=C(O)c1cc2cc(Cl)ccc2nc1NC(Cc1cccnc1)C(=O)O (stereo not drawn)
16,179 to 182 °C (dec.),"O=C(O)c1cc2cc(Cl)ccc2nc1NC(CCc1ccccc1)C(=O)O (stereo not drawn) [Example 28, 2-(1-Carboxy-3-phenyl-propylamino)-6-chloro-quinoline-3-carboxylic acid]"
17,> 180 °C (dec.),COc1ccccc1CC(Nc1nc2ccc(Cl)cc2cc1C(=O)O)C(=O)O (stereo not drawn)
18,174 to 182 °C,Br.Br.NCCCC[C@H](Nc1nc2ccc(Cl)cc2cc1C(=O)O)C(=O)O
19,150 to 151 °C,"O=C(O)c1cc2cc(Cl)ccc2nc1NC(COCc1ccccc1)C(=O)Nc1ccccc1 (stereo not drawn) [Example 117, 2-(2-Benzyloxy-1-phenylcarbamoyl-ethylamino)-6-chloro-quinoline-3-carboxylic acid]"
20,164 to 173 °C,"O=C(O)c1cc2cc(Cl)ccc2nc1NC(Cc1ccc(C#Cc2ccccc2)cc1)C(=O)O (stereo not drawn) [Example 62, 2-[1-Carboxy-2-(4-phenylethynyl-phenyl)-ethylamino]-6-chloro-quinoline-3-carboxylic acid]"
21,230 to 250 °C (dec.),"O=C(O)c1cc2cc(Cl)ccc2nc1NC(C(=O)O)C(C(=O)O)c1cc(F)cc(F)c1 (stereo not drawn) [Example 136, 2-(3-Carboxy-6-chloro-quinolin-2-ylamino)-3-(3,5-difluoro-phenyl)-succinic acid]"
22,> 250 °C (dec.),O=C(O)c1cccc(CC(Nc2nc3ccc(Cl)cc3cc2C(=O)O)C(=O)O)c1 (stereo not drawn)
23,> 250 °C (dec.),"O=C(O)c1cc2cc(Cl)ccc2nc1NC(Cc1cccs1)C(=O)O (stereo not drawn) [Example 83, 2-(1-Carboxy-2-thiophen-2-yl-ethylamino)-6-chloro-quinoline-3-carboxylic acid]"

# Target: T1, NMDA receptor glycine B site (Rattus norvegicus, UniProt P35439)
# T1 construct: Hippocampi are then isolated from the brains of at least 8 embryos after decapitation; endogenous in cells; host or cells: primary cultured hippocampal neurons from E20 Sprague-Dawley rat embryos, 11-15 DIV
# Experiment: Whole cell patch-clamp recordings in cultured rat hippocampal neurons (NMDA/D-Serine evoked currents)
# Format: cell-based
# Conditions: NMDA (200 μM) and D-Serine (1 μM), holding potential −70 mV, read-out: NMDA-PC-r-HIC-NAM - IC50
# Protocol: Antagonistic potencies of the test compounds are functionally evaluated using electrophysiological whole cell patch-clamp recordings and/or fluorometric intracellular Ca^2+-imaging (FLIPR) screens.
# Cell preparation is performed as described by Parsons, et al. (Neuropharmacology, 1998, 37(6), 719-727). The female Sprague-Dawley rat is anaesthetised by placing in a saturated CO2-euthanasia chamber under further quiet CO2-influx. Under these conditions the rat loses consciousness after a few seconds and is then sacrificed by cervical dislocation. After opening the abdominal cavity, embryos (E20) are removed and stored in ice cold Ca^2+- and Mg^2+-free Hank's Buffered Salt Solution (pH 7.3), containing 4 g/l glucose (HBSS-CMF). Hippocampi are then isolated from the brains of at least 8 embryos after decapitation, transferred into ice cold HBSS-CMF and washed 3 to 4 times.
# Hippocampi are pre-incubated for 8 min with a 0.66% trypsin (Sigma-Aldrich) and 0.1% (20 U/ml) DNAase solution (Sigma-Aldrich) in Ca^2+-free Phosphate Buffered Saline (PBS-CF) and washed 3 times with HBSS-CMF. Cells are then mechanically dissociated by trituration in a PBS-CF solution containing 0.05% (10 U/ml) DNAase and 0.3% of the trypsin inhibitor ovomucoid (all from Sigma-Aldrich). The cells are then centrifuged at 180×g for 10 minutes, and the cell pellet re-suspended in basal Minimum essential medium (MEM, Invitrogen, Karlsruhe, Germany), again carefully triturated to ensure maximal dissociation and finally plated in the flexiPERM inserts (Thermo Fisher Scientific, Langenselbold, Germany) at a density of 15×10^3 cells/cm^2 (0.5 ml/insert) onto poly-DL-ornithine (Sigma) and mouse laminin (Invitrogen) pre-coated plastic petri dishes. After 1 hour the cells become attached to the bottom of the dish and the inserts may be removed. The cells are then nourished with 2 ml MEM supplemented with 5% foetal calf serum (FCS) and 5% horse serum and incubated at 37° C. with 95% air and 5% CO2 at 95% humidity. After 4 days in vitro (DIV) further glial mitosis is inhibited by adding 10 μl of AraC (5 μM endconcentration). The medium is completely exchanged after an additional 2 DIV and again, but only partly (50%), after 8 DIV. The cells are used for electrophysiological recordings after 11-15 DIV.
# Cells are visualised using an inverted microscope and selected for patching based upon their position and morphology. Voltage clamp recordings are made in the whole cell configuration of the patch clamp technique at a holding potential of −70 mV with the aid of an EPC-10 amplifier in combination with pipette manipulator. Patch clamp pipettes are pulled from borosilicate glass using a horizontal puller (P-97 Puller, Sutter Instruments, USA) and, when filled with intracellular solution, have resistances of 1-4 MΩ.
# Solutions are delivered via a home-made gravity driven very fast perfusion system (<10 ms) including valves to switch flow on and off in combination with a stepper motor-driven double-barreled theta glass application pipette in order to expose cells to either agonist-free or agonist-containing solutions in presence or absence of antagonist.
# The intracellular solution used consists of: 120 mM CsCl, 10 mM EGTA, 1 mM MgCl2, 200 μM CaCl2, 10 mM glucose and 22 mM tetraethyl ammonium chloride (TEA-CL). The corresponding extracellular bath solution contains: 140 mM NaCl, 3 mM KCl, 10 mM glucose, 10 mM HEPES, 1.5 mM CaCl2 and 4.5 mM sucrose (all from Sigma-Aldrich) pH 7.3, and is supplemented with 0.3 μM tetrodotoxin (TTX, Tocris, Bristol, U.K.) to block voltage-activated sodium channels and 0.25 μM bicuculline (Sigma-Aldrich) to block GABAA receptors. […]
row,IC50 [nM],SMILES
1,170,"O=C(O)c1cc2cc(Cl)ccc2nc1N[C@@H](Cc1ccc(Oc2ccc(I)cn2)cc1)C(=O)O [Example 131, 2-{1-Carboxy-2-[4-(5-iodo-pyridin-2-yloxy)-phenyl]-ethylamino}-6-chloro-quinoline-3-carboxylic acid]"
2,898,"O=C(O)c1cc2cc(Cl)ccc2nc1N[C@@H](Cc1ccc(Cl)cc1)C(=O)O [Example 23, 2-[(S)-1-Carboxy-2-(4-chloro-phenyl)-ethylamino]-6-chloro-quinoline-3-carboxylic acid]"
3,534,"O=C(O)c1cc2cc(Cl)ccc2nc1N[C@H](Cc1ccccc1)C(=O)O [Example 6, 2-((R)-1-Carboxy-2-phenyl-ethylamino)-6-chloro-quinoline-3-carboxylic acid]"
4,190,"O=C(O)c1cc2cc(Cl)ccc2nc1N[C@@H](Cc1ccc(Oc2ccc3c(-c4ccccc4)nccc3n2)cc1)C(=O)O [Example 130, 2-{(S)-1-Carboxy-2-[4-(5-phenyl-[1,6]naphthyridin-2-yloxy)-phenyl]-ethylamino}-6-chloro-quinoline-3-carboxylic acid]"
5,170,"O=C(O)c1cc2cc(Cl)ccc2nc1NC(Cc1ccccn1)C(=O)O (stereo not drawn) [Example 149, 2-(1-Carboxy-2-pyridin-2-yl-ethylamino)-6-chloro-quinoline-3-carboxylic acid]"
6,1150,"O=C(O)c1cc2cc(Cl)c(Cl)cc2nc1N[C@H](Cc1c[nH]c2ccccc12)C(=O)O [Example 36, 2-[(R)-1-Carboxy-2-(1H-indol-3-yl)-ethylamino]-6,7-dichloro-quinoline-3-carboxylic acid]"
7,1360,"Cn1cc(C[C@H](Nc2nc3ccc(Cl)cc3cc2C(=O)O)C(=O)O)c2ccccc21 [Example 15, 2-[(S)-1-Carboxy-2-(1-methyl-1H-indol-3-yl)-ethylamino]-6-chloro-quinoline-3-carboxylic acid]"
8,510,"O=C(O)c1cc2cc(Cl)cc(Cl)c2nc1NC(Cc1cccc(F)c1)C(=O)O (stereo not drawn) [Example 115, 2-[1-Carboxy-2-(3-fluoro-phenyl)-ethylamino]-6,8-dichloro-quinoline-3-carboxylic acid]"
9,380,"O=C(O)c1cc2cc(Cl)ccc2nc1NC(Cc1ccc(Oc2nc3ccccc3cc2C(=O)O)cc1)C(=O)O (stereo not drawn) [Example 110, 2-{1-Carboxy-2-[4-(3-carboxy-quinolin-2-yloxy)-phenyl]-ethylamino}-6-chloro-quinoline-3-carboxylic acid]"
10,1670,"O=C(O)c1cc2cc(Cl)ccc2nc1N[C@@H](Cc1ccc(O)cc1)C(=O)O [Example 34, 2-[(S)-1-Carboxy-2-(4-hydroxy-phenyl)-ethylamino]-6-chloro-quinoline-3-carboxylic acid]"
